Data taken from patent US20110105382A1, “CALMODULIN-BINDING PEPTIDES THAT REDUCE CELL PROLIFERATION IN CANCER AND SMOOTH MUSCLE PROLIFERATION DISEASES” (priority 2007, published 2011).
“Also recorded” adds a separate entry of the source. Where no end group is shown, it is not given here.

What was measured:
[1] = tested on: cyclins E1/E2 double knockout MEF; assay: Cell cycle analysis, cyclin E1/E2 double knockout MEF; format: cell-based, mouse; details: starved cells, serum stimulation 10% FBS, 24 hr (peptide) or 20 hr (CMZ)
Method: (§1) Cell culture conditions The isolation and culture of primary mouse aortic VSMC have was performed according to methods previously described (Afroze T, Yang L L, Wang C, Gros R, Kalair W, Hogue A N, Mungrue I N, Zhu Z, Husain M. Calcineurin-independent regulation of plasma membrane Ca2+ ATPase-4 in the vascular smooth muscle cell cycle. Am J Physiol Cell Physiol. July 2003; 285(1):C88-95). VSMCs were grown in DMEM (GIBCO/BRL, Gaithersburg, Md.) supplemented with 10% FBS (Hyclone, Logan, Utah), 50 ng/mL platelet-derived growth factor (PDGF, Sigma) and 1% penicillin-streptomycin (GIBCO/BRL). For serum starvation, cells were grown to 60% to 70% confluence, washed twice with PBS, and cultured in starvation medium (0.25% FBS-supplemented DMEM) for 72 hours to achieve Go arrest. Progression to G1/S was brought about by stimulation with 10% FBS and 50 ng/mL PDGF for 24 hours. Cells and reagents for primary human aortic VSMC culture were purchased from Cascade Biologics. Human VSMC(C-007-5C) were grown in Medium 231 with Smooth Muscle Growth Supplement (SMGS) S-007-25 and 1% penicillin-streptomycin (GIBCO/BRL). […]
Flow cytometric analysis. […] Cells were counted in a flow cytometer (FACScan, BD Biosciences), and G0/G1, S, and G2/M cell percentages were calculated with Cell Quest software (BD Biosciences).

[2] = tested on: primary human aortic VSMC; assay: 3H-thymidine incorporation assay, human aortic VSMC; format: cell-based; details: 10 and 100 μM for 1.0 h, 72 h after treatment; listed as TAT-CBS
Method: as §1, with “Biologics.” for “Biologics. Human VSMC(C-007-5C) were grown in Medium 231 with Smooth Muscle Growth Supplement (SMGS) S-007-25 and 1% penicillin-streptomycin (GIBCO/BRL).”
(§2) ^3H-thymidine incorporation proliferation assay. […] Cells were grown at 37° C. and analyzed at 24, 48 and 72 h after ^3H-thymidine exposure. […] Solubilized contents of wells were removed and added to 2.5 ml of scintillation fluid (ReadySafe™ Cocktail, Beckman Coulter, Product No. 141349). Radioactivity was measured in a scintillation counter (Beckman Coulter, LS 6500).

[3] = tested on: primary mouse aortic SMC; format: cell-based
Method: (§3) Cell culture conditions The isolation and culture of primary mouse aortic VSMC have was performed according to methods previously described (Afroze T, Yang L L, Wang C, Gros R, Kalair W, Hogue A N, Mungrue I N, Zhu Z, Husain M. Calcineurin-independent regulation of plasma membrane Ca2+ ATPase-4 in the vascular smooth muscle cell cycle. Am J Physiol Cell Physiol. July 2003; 285(1):C88-95). VSMCs were grown in DMEM (GIBCO/BRL, Gaithersburg, Md.) supplemented with 10% FBS (Hyclone, Logan, Utah), 50 ng/mL platelet-derived growth factor (PDGF, Sigma) and 1% penicillin-streptomycin (GIBCO/BRL). For serum starvation, cells were grown to 60% to 70% confluence, washed twice with PBS, and cultured in starvation medium (0.25% FBS-supplemented DMEM) for 72 hours to achieve Go arrest. Progression to G1/S was brought about by stimulation with 10% FBS and 50 ng/mL PDGF for 24 hours. Cells and reagents for primary human aortic VSMC culture were purchased from Cascade Biologics. Human VSMC(C-007-5C) were grown in Medium 231 with Smooth Muscle Growth Supplement (SMGS) S-007-25 and 1% penicillin-streptomycin (GIBCO/BRL). Cyclin E1/E2 double knockout mouse embryonic fibroblasts (MEF) were kindly provided by Dr. P. Sicinski (Harvard Medical School), and maintained in DMEM with 10% FBS (Hyclone) and 1% penicillin-streptomycin (GIBCO/BRL). Go arrest of MEF was achieved by starvation for 48 h in medium lacking FBS. Mouse embryonic fibroblasts (MEF) were maintained for normal culture in 10% FBS-supplemented DMEM. For the starvation of MEF, cells were cultured in starvation medium without FBS for 48 hours to achieve Go arrest. HeLa (human cervical cancer cell), Saos-2 (human osteosarcoma cell) and A549 (human lung cancer cell) were cultured in 10% FBS-supplemented DMEM.
(§4) MTT colorimetric survival assay. Active mitochondria of living cells can cleave MTT to produce formazan, the amount of which is directly proportional to the number of living cells. Cell survival was assessed (Denizot, 1986). Cells in 96-well plate were washed two times with PBS followed by 4 hr of incubation at 37° C. with 1 mg/ml of MTT (in phenol red free DMEM supplemented with 2 mM of L-glutamine & 1 mM of sodium pyruvate) in a reaction volume of 100 μl. After removing MTT solution, DMSO was added to dissolve formazan crystals. Plate was shaken for 5 min at 55° C. for complete dissolve. Dye absorbance in viable cells was measured at 570 nm with 630 nm as a reference wavelength. All experiments were repeated at least 3 times, and each experimental condition was repeated in at least quadruplicate wells in each experiment.
Nucleofection. For peptides delivery via Nucleofector technology, 1×10^6 cells were harvested, resuspended in 100 μl of Nucleofector solution (for VSMC: Cat. No. VPI-1004; for MEF: Cat. No.: VPD-1005, both provided by Amaxa GmBH, Köln, Germany) and mixed with 100 nmole (in 10 μl) of each peptide. The cell solution was transferred into a kit-provided cuvette and positioned into a Nucleofector device. Subsequently, the transfection was performed with a single pulse using the preprogrammed nucleofection program (A-33 for VSMC; T-20 for MEF) according to the manufacturer's recommendation. Following nucleofection, the cells were transferred into 96-well plate (2K or 5K cells per well for MTT assay) or T25 culture flasks (for FACS analysis) containing pre-warmed stem cell medium using kit-provided plastic pipettes to prevent cell damage and the cells were cultured at 37° C. in 5% CO2.

[4] = tested on: Saos-2 (human osteosarcoma); assay: MTT proliferation assay, Saos-2; format: cell-based; details: 100 μM, MTT after 2 days
Method: as §3, §4

[5] = tested on: A549 (human lung cancer cell); assay: MTT proliferation assay, A549; format: cell-based; details: 100 μM, MTT after 2 days
Method: as §3, §4

[6] = tested on: MEF; assay: 3H-thymidine incorporation assay, MEF; format: cell-based, mouse; details: 10 and 100 μM for 1.0 h, 48 h after treatment; listed as TAT-CBS
Method: as §1, with “Biologics.” for “Biologics. Human VSMC(C-007-5C) were grown in Medium 231 with Smooth Muscle Growth Supplement (SMGS) S-007-25 and 1% penicillin-streptomycin (GIBCO/BRL).”
as §2

[7] = tested on: Cyclin E1/E2 KO MEF; assay: 3H-thymidine incorporation assay, Cyclin E1/E2 KO MEF; format: cell-based, mouse; details: 10 and 100 μM for 1.0 h, 48 h after treatment; listed as TAT-CBS
Method: as §1, with “Biologics.” for “Biologics. Human VSMC(C-007-5C) were grown in Medium 231 with Smooth Muscle Growth Supplement (SMGS) S-007-25 and 1% penicillin-streptomycin (GIBCO/BRL).”
as §2

[8] = tested on: HeLa (human cervical cancer cell); assay: MTT proliferation assay, HeLa; format: cell-based; details: 100 μM, MTT after 2 days
Method: as §3, §4

| Compound | cell cycle progression into S phase, cyclins E1/E2 double knockout MEF [1] | 3H-thymidine incorporation (S-phase entry), human aortic VSMC [2] | IC50 [3] [µM] | maximum level of inhibition of VSMC proliferation [3] [%] | proliferation of Saos-2 cells (MTT) [4] | proliferation of A549 cells (MTT) [5] | 3H-thymidine incorporation (S-phase entry), MEF [6] | 3H-thymidine incorporation (S-phase entry), Cyclin E1/E2 KO MEF [7] | proliferation of HeLa cells (MTT) [8] |
| --- | --- | --- | --- | --- | --- | --- | --- | --- | --- |
| Clc1ccc(C(c2ccc(Cl)cc2)n2cc[n+](CC(OCc3ccc(Cl)cc3Cl)c3ccc(Cl)cc3Cl)c2)cc1 (stereo not drawn) [calmidazolium] | did inhibit | – | – | – | – | – | – | – | – |
| RRRQRRKKRGGGAEFSARSRKRKANVTVFLQD [TAT-SEQ ID NO:2] | – | dose-dependent inhibitory effect; also recorded: inhibited; also recorded: dose-dependent, anti-proliferative effect | 8.89 ± 1.24 | 70 | inhibited | inhibited | observed; also recorded: dose-dependent, anti-proliferative effect | not and not able to produce an anti-proliferative effect | inhibited |
